Measured values reported in article PMC5379148, “A phase I study of intravenous and oral rucaparib in combination with chemotherapy in patients with advanced solid tumours” (British Journal of Cancer, 2017).

Assay: Plasma pharmacokinetics of rucaparib (LC-MS/MS, noncompartmental)
Settings: for Vd / AUC(0-t) / AUC(0-inf) / Cmax / Tmax / bioavailability / Tmax at 14 days: human, plasma; for AUC(0-inf): AUCinf; for Tmax / Tmax at 14 days: median (minimum, maximum)
[1] = iv, 12 mg, single i.v. dose 12 mg, day –10, geometric mean (CV%)
[2] = iv, 18 mg, single i.v. dose 18 mg, day –10, geometric mean (CV%)
[3] = iv, 24 mg, single i.v. dose 24 mg, day –10, geometric mean (CV%)
[4] = iv, 27 mg, single i.v. dose 27 mg, day –10, geometric mean (CV%)
[5] = iv, 40 mg, single i.v. dose 40 mg, day –10, geometric mean (CV%)
[6] = po, 12 mg, single oral dose 12 mg, day –5, geometric mean (CV%)
[7] = po, 36 mg, single oral dose 36 mg, day –5, geometric mean (CV%)
[8] = po, 48 mg, single oral dose 48 mg, day –5, geometric mean (CV%)
[9] = po, 72 mg, single oral dose 72 mg, day –5, geometric mean (CV%)
[10] = po, 80 mg, single oral dose 80 mg, day 1, geometric mean (CV%)
[11] = po, 80 mg, single oral dose 80 mg, day –5, geometric mean (CV%)
[12] = po, 120 mg, single oral dose 120 mg, day 1, geometric mean (CV%)
[13] = po, 120 mg, single oral dose 120 mg, day –5, geometric mean (CV%)

Procedure: On cycle 1 days −10, −5, 1, and 14, plasma samples were obtained from all patients before rucaparib dosing and at 15 and 30 min, and at 1, 1.5, 2.5, 4, 6, 10, and 24 h after the start of the rucaparib administration (i.v. infusion (day −10) or oral (days −5, 1, and 14)). On cycle 1 days −10 and −5, samples were also obtained 48 h after the start of rucaparib administration. Rucaparib concentration was determined using liquid chromatography with tandem mass spectrometry.
Plasma clearance or apparent plasma clearance and steady-state volume of distribution were calculated for rucaparib. The oral bioavailability of rucaparib was calculated as the ratio of dose-normalised AUC0–t or AUCinf (data permitting) determined using oral rucaparib PK data collected on cycle 1 day −5 to that determined using the i.v. PK data collected on cycle 1 day −10. Pharmacokinetic parameters were summarised with the geometric mean and the coefficient of variation (CV). The ratio of Cmax and AUC0–24 of rucaparib administered in combination with chemotherapies to those of rucaparib alone was calculated and summarised, with mean and CV% to evaluate the effect of chemotherapies on the PK of rucaparib for both the i.v. dose (day −10) and oral dose (day −5).
The oral bioavailability of rucaparib was calculated as the ratio of dose-normalised AUC0-t or AUCinf (data permitting) determined using oral rucaparib PK data collected on cycle 1 day –5 to that determined using the intravenous PK data collected on cycle 1 day –10. The tmax was summarised with medians and ranges. The accumulation ratio after multiple oral rucaparib dosing (once daily) was assessed as the ratio of the AUC0-24 determined using PK collected on cycle 1 day 14 to the AUC0-24 after the cycle 1 day –5 lead-in dose. The ratio of the Cmax on day 14 to the Cmax on day –5 was also calculated. Additionally, the ratio of the AUC0-24 on cycle 1 day 14 to the AUCinf after the cycle 1 day –5 lead-in dose was calculated as an indication for any time-dependent change in rucaparib PK.

Structure (SMILES): CNCc1ccc(-c2[nH]c3cc(F)cc4c3c2CCNC4=O)cc1 [rucaparib]
- impact of chemotherapy coadministration on i.v. rucaparib PK (carboplatin+paclitaxel, cisplatin+pemetrexed, or epirubicin+cyclophosphamide): No apparent impact
- Vd (iv, 12 mg): 258 L
- AUC(0-t) (iv, 12 mg, AUC0-24, single i.v. dose 12 mg, day –10, geometric mean (CV%)): 549 ng·h/mL
- AUC(0-inf) [1]: 740 ng·h/mL
- Cmax [1]: 324 ng/mL
- Tmax (iv, 12 mg, single i.v. dose 12 mg, day –10): 0.5 h
- Vd (iv, 18 mg): 234 L
- AUC(0-t) (iv, 18 mg, AUC0-24, single i.v. dose 18 mg, day –10, geometric mean (CV%)): 812 ng·h/mL
- AUC(0-inf) [2]: 976 ng·h/mL
- Cmax [2]: 498 ng/mL
- Tmax (iv, 18 mg, single i.v. dose 18 mg, day –10): 0.5 h
- Vd (iv, 24 mg): 262 L
- AUC(0-t) (iv, 24 mg, AUC0-24, single i.v. dose 24 mg, day –10, geometric mean (CV%)): 1220 ng·h/mL
- AUC(0-inf) [3]: 1710 ng·h/mL
- Cmax [3]: 627 ng/mL
- Tmax (iv, 24 mg, single i.v. dose 24 mg, day –10): 0.5 h
- Vd (iv, 27 mg): 191 L
- AUC(0-t) (iv, 27 mg, AUC0-24, single i.v. dose 27 mg, day –10, geometric mean (CV%)): 1450 ng·h/mL
- AUC(0-inf) [4]: 1900 ng·h/mL
- Cmax [4]: 866 ng/mL
- Tmax (iv, 27 mg, single i.v. dose 27 mg, day –10): 0.38 h
- Vd (iv, 40 mg): 113 L
- AUC(0-t) (iv, 40 mg, AUC0-24, single i.v. dose 40 mg, day –10, geometric mean (CV%)): 2530 ng·h/mL
- AUC(0-inf) [5]: 2880 ng·h/mL
- Cmax [5]: 1610 ng/mL
- Tmax (iv, 40 mg, single i.v. dose 40 mg, day –10): 0.5 h
- bioavailability (po): 36%
- bioavailability (po, 12 mg): 33.4%
- AUC(0-t) (po, 12 mg, AUC0-24, single oral dose 12 mg, day –5, geometric mean (CV%)): 155 ng·h/mL
- AUC(0-inf) [6]: 225 ng·h/mL
- Cmax [6]: 24 ng/mL
- Tmax (po, 12 mg, single oral dose 12 mg, day –5): 1 h
- bioavailability (po, 36 mg): 45.3%
- AUC(0-t) (po, 36 mg, AUC0-24, single oral dose 36 mg, day –5, geometric mean (CV%)): 696 ng·h/mL
- AUC(0-inf) [7]: 1100 ng·h/mL
- Cmax [7]: 90 ng/mL
- Tmax (po, 36 mg, single oral dose 36 mg, day –5): 2 h
- bioavailability (po, 48 mg): 33.6%
- AUC(0-t) (po, 48 mg, AUC0-24, single oral dose 48 mg, day –5, geometric mean (CV%)): 620 ng·h/mL
- AUC(0-inf) [8]: 922 ng·h/mL
- Cmax [8]: 80 ng/mL
- Tmax (po, 48 mg, single oral dose 48 mg, day –5): 1.25 h
- bioavailability (po, 72 mg): 30.1%
- AUC(0-t) (po, 72 mg, AUC0-24, single oral dose 72 mg, day –5, geometric mean (CV%)): 893 ng·h/mL
- AUC(0-inf) [9]: 1090 ng·h/mL
- Cmax [9]: 108 ng/mL
- Tmax (po, 72 mg, single oral dose 72 mg, day –5): 2 h
- bioavailability (po, 80 mg): 30.7%
- AUC(0-t) (po, 80 mg, AUC0-24, oral 80 mg q.d. for 14 days, n = 1): 2210 ng·h/mL
- AUC(0-t) (po, 80 mg, AUC0-24, single oral dose 80 mg, day 1, geometric mean (CV%)): 1380 ng·h/mL
- AUC(0-t) (po, 80 mg, AUC0-24, single oral dose 80 mg, day –5, geometric mean (CV%)): 1270 ng·h/mL
- AUC(0-inf) [10]: 1700 ng·h/mL
- AUC(0-inf) [11]: 1920 ng·h/mL
- Cmax (po, 80 mg, oral 80 mg q.d. for 14 days, n = 1): 190 ng/mL
- Cmax [10]: 99 ng/mL
- Cmax [11]: 114 ng/mL
- Tmax at 14 days (po, 80 mg, oral 80 mg q.d. for 14 days): 2.5 h
- Tmax (po, 80 mg, single oral dose 80 mg, day 1): 4 h
- Tmax (po, 80 mg, single oral dose 80 mg, day –5): 2.5 h
- bioavailability (po, 120 mg): 41.1%
- AUC(0-t) (po, 120 mg, AUC0-24, oral 120 mg q.d. for 14 days, geometric mean (CV%)): 4040 ng·h/mL
- AUC(0-t) (po, 120 mg, AUC0-24, single oral dose 120 mg, day 1, geometric mean (CV%)): 3260 ng·h/mL
- AUC(0-t) (po, 120 mg, AUC0-24, single oral dose 120 mg, day –5, geometric mean (CV%)): 2920 ng·h/mL
- AUC(0-inf) [12]: 3770 ng·h/mL
- AUC(0-inf) [13]: 4070 ng·h/mL
- Cmax (po, 120 mg, oral 120 mg q.d. for 14 days, geometric mean (CV%)): 375 ng/mL
- Cmax [12]: 344 ng/mL
- Cmax [13]: 274 ng/mL
- Tmax at 14 days (po, 120 mg, oral 120 mg q.d. for 14 days): 2.5 h
- Tmax (po, 120 mg, single oral dose 120 mg, day 1): 4 h
- Tmax (po, 120 mg, single oral dose 120 mg, day –5): 4 h
- AUC(0-t) (po, 180 mg, AUC0-24, oral 180 mg q.d. for 14 days, geometric mean (CV%)): 7660 ng·h/mL
- AUC(0-t) (po, 180 mg, AUC0-24, single oral dose 180 mg, day 1, geometric mean (CV%)): 5920 ng·h/mL
- AUC(0-t) (po, 180 mg, AUC0-24, single oral dose 180 mg, day –5, geometric mean (CV%)): 5610 ng·h/mL
- AUC(0-inf) (po, 180 mg, single oral dose 180 mg, day –5, geometric mean (CV%)): 8410 ng·h/mL
